Test results: US8247540B2, “Caged nucleotides and oligonucleotides and their application” (priority 2008, dated 2012)
Values joined by “and” are separate entries in the source; they are usually repeats but may differ in a detail not shown here. Equal values may be shown once. Strand notation (5' to 3'): a small letter for the sugar, then the base; units joined by * are phosphorothioate-linked, units joined directly phosphodiester-linked; [ ] holds rarer units or linkages, { } end groups; capitals alone tell only the bases. [cagedT] = caged thymidine: thymidine bearing a photolabile caging group, removed by UV irradiation at 365 nm; [cageT] = thymidine carrying a photolabile caging group (caged thymidine), removed by 365 nm UV light; [NPOM-T] = NPOM-caged (photocaged) thymidine; d = 2'-deoxy (DNA)

Tests used:
[1] = system: non-caged complement (5′ CGAACCTGGTCGAAATCAG 3′); assay: Melting temperatures of caged and non-caged PCR primers with complementary DNA; format: binding; settings: for Mp/° C. +UV: after 8 minutes irradiation at 365 nm; for Mp/° C. −UV: before UV, 1 μM primer and complementary DNA; for melting temperature depression: single caging group, versus P1, −UV
Procedure: The DNA oligomers P1-P7, consisting of 19 nucleotides, a typical length for PCR primers, and containing 0-4 caged thymidines have been synthesized (Table 1). These primers were than analyzed for their annealing and melting properties in the presence of a complementary oligonucleotide.
Melting curves were measured on a BioRad MyiQ RT-PCR thermocycler by conducting a sequence of 3 heating and cooling cycles (1 μM of both primer and complementary DNA with 12.5 μL iQ SYBR Green Supermix to a total volume of 25 μL; 40° C. to 80° C. with a 0.5° C./min ramp). The melting temperatures were determined to be 65.3° C. (P1), 62.1° C. (P2), 54.3° C. (P3), 55.5° C. (P4), and 50.0° C. (P6). […] This effect was less pronounced in P2, perhaps due to the caged T's close proximity to the 5′ terminus, which lead to a lower level of interference with the hybridization of neighboring nucleotides. With the incorporation of additional caging groups in P4-P7, melting temperatures decreased further. However, addition of a single caged thymidine close to the 5′ terminus of P3 had no effect in P4. […] In order to ensure a complete removal of the photolabile group, each primer was irradiated for 8 minutes at 365 nm, and then analyzed in the same melting temperature assay.

[2] = system: complementary RNA sequence (5′ UCCAGAACAAAGGAAACG 3′); assay: Melting temperature of PS DNA/RNA hybrids before and after irradiation; format: binding; settings: PS DNA/RNA hybrid; for Mp/° C. −UV: before irradiation; for Mp/° C. +UV: after irradiation (5 min, 365 nm, 23 W)
Source text: The capacity of the three and four caging groups to inhibit hybridization of the caged PS DNA oligomer to the complementary RNA sequence (5′ UCCAGAACAAAGGAAACG 3′) [SEQ ID NO 14] was examined. Hybridization was monitored on a BioRad MyiQ RT-PCR thermocycler by conducting a sequence of 3 heating and cooling cycles. […] Complete hybridization was restored upon a 5-minute irradiation at 365 nm for both caged analogs (Table 2).

[3] = system: Renilla luciferase reporter gene; assay: Renilla luciferase antisense assay in NIH 3T3 cells (dual reporter); format: cell-based, mouse; settings: for antisense activity / effect on the luciferase signal: NIH 3T3, without UV irradiation
Source text: The error bars represent the standard deviation of three independent experiments.
These antisense oligomers were transfected into mouse fibroblast cells (NIH 3T3) together with a dual reporter system encoding Renilla luciferase and firefly luciferase as a transfection control.

chordin = assay: Light-regulation of morpholino activity in zebrafish embryos; format: in vivo
Procedure: Percentages represent the frequency of the pictured phenotype in live fish. A) Non-injected embryo (100%). B) Injection of the non-caged Chordin-0 MO (100%). C) Injection of the caged MO (Chordin-4) −UV irradiation (80%). D) Injection of the caged MO (Chordin-4) +UV irradiation for 60 sec at 365 nm (100%). Identical amounts were injected in each experiment. The expanded blood island (arrows) is indicative of the chordin phenotype.
Injections with the non-caged and caged morpholino oligomers containing four […] monomers targeting chordin were conducted. Zebrafish embryos were injected into the yolk sac at the 1-4 cell stage with ˜1 nl of 500 μm caged Chordin-4 morpholino (5′ AT*CCACAGCAGCCCCT*CCAT*CAT*CC 3′ [SEQ ID NO 2]; T* denotes the caged thymidine; containing 0.15% phenol red to verify injection). Immediately after injection, half of the injected embryos were exposed to 365 nm UV light for 60 sec. The other half was protected from light. Half of the uninjected control embryos were also exposed to 365 nm UV for 60 sec, and no phenotypic differences between ±UV were detected. All embryos were grown at 28° C. for about 28 hours before their phenotypes were photographed. The chordin gene induces dorsalization of the developing embryo and injection of an anti-chordin MO induces a phenotype resembling chordin null-mutant embryos by displaying abnormally shaped somites, an expanded blood island (see arrows in FIG. 5), an abnormal tail fin, and a reduced head (see FIG. 5B compared to the non-injected fish shown in FIG. 5A).

[4] = system: DNA template (plasmid DNA); assay: Light-triggered polymerase chain reaction (activation and deactivation); format: biochemical
Procedure: The DNA template (1.5 ng/μL of plasmid DNA) was incubated in the presence of P5 and a reverse primer (5′[…]-GT 3′, [SEQ ID NO 11] 1 μM each; the same reverse primer was used in all PCRs) with nucleotide triphosphates (dNTPs, 0.3 mM each), in Taq Reaction Buffer (10 mM Tris-HCl, 50 mM. KCl, 1.5 mM MgCl2, pH 8.3) and water. Taq DNA Polymerase (3 units/μL) was added to initiate the reaction. Prior to placement in a PCR thermocycler (Eppendor Mastercycler) the reaction was either irradiated for 8 minutes at 365 nm, or maintained in the dark. An initial denaturation at 95° C. was performed, followed by 40 cycles of 95° C. (30 sec), 50° C. (30 sec), and 72° C. (1 min), with a final extension at 72° C. (2 min). The reactions were conducted in triplicate, visualized on a 1% agarose gel, and quantitated (all DNA was quantified by band integration in ethidium bromide stained agarose gels using Image Quant 5.2). […] This experiment represented the first example of a light-activated PCR. While we initially employed irradiation prior to the thermal cycling, temporal control was also achieved by initiating the reaction through irradiation at a specific timepoint. Here, an identical reaction with UV irradiating at cycle 15 was conducted. Prior to irradiation, no PCR product can be detected in reactions conducted with the caged primer P5. In contrast, the non-caged primer P1 lead to the expected exponential amplification.
After achieving photochemical control of the activation of PCR at a specific time point, the possibility to switch-off PCR activity via light irradiation was examined. This was accomplished by designing a self-complementary primer which was predisposed to form a hairpin, rather than act as a PCR primer. By installing caging groups on the complementary portion of this sequence it was possible to block self-hybridization, which enabled the polymerization reaction. The PCR was then stopped by removing the photoactive groups, leading to hairpin formation and primer deactivation (FIG. 7). In order to achieve photochemical deactivation, an appropriate hairpin primer P8 was designed (5′ […] 3′) [SEQ ID NO. 12], and a photocaged analog P9 was synthesized (5′ […] 3′) [SEQ ID NO. 13]. […] However, in the absence of light irradiation the caged hairpin primer P9 was successful in acting as a primer, yielding 137 ng of PCR product (not shown).
Light-regulatory mechanisms were also employed in a temporally controlled fashion by irradiating the caged primer after 10 cycles of PCR. The non-caged primer P8 was used as a control, as it formed a hairpin immediately, blocking Taq DNA polymerase and inhibiting amplification. Because the caged primer P9 was able to bind to the DNA template, amplification occurred. […] At the same point, amplification continued in the non-irradiated reaction with P9.

[5] = Stability of the caging group to PCR conditions; format: physicochemical; settings: elevated temperatures required for PCR
[6] = activation experiment, no UV irradiation, 40 cycles

Which results are given for “P3: primer 5′ CTGATTTCGACCAGGTTCG 3′ with a single caged thymidine, SEQ ID NO 5 (DNA, [cageT] at 7, backbone not given here)”?
Mp/° C. +UV [1]: 64.1 ± 0.8 °C; Mp/° C. −UV [1]: 54.3 °C and 54.3 ± 1.1 °C; melting temperature depression [1]: 11.0 °C

For “5. Control: control phosphorothioate DNA 5′ TCCAGAACAAAGGAAACG 3′, SEQ ID NO 15 (DNA dT*dC*dC*dA*dG*dA*dA*dC*dA*dA*dA*dG*dG*dA*dA*dA*dC*dG)”, which “Mp/° C. −UV” value [2] is on record?
Its value is “No hybridization was detected”.

And the “antisense activity / effect on the luciferase signal” value [3]?
The value was “no effect on the luciferase signal”.

What does the source list for “Chordin-4: caged morpholino 5′ AT*CCACAGCAGCCCCT*CCAT*CAT*CC 3′, T* caged thymidine, four 21 monomers (DNA ATCCACAGCAGCCCCTCCATCATCC; morpholino, caged thymidines, chemistry not fully specified)”?
frequency of the pictured phenotype in live fish (chordin; +UV irradiation for 60 sec at 365 nm, chordin phenotype pictured): 100%; morpholino antisense activity (phenotype) (chordin; protected from light, about 28 hours at 28° C.): completely inactive; frequency of the pictured phenotype in live fish (chordin; −UV irradiation, wild-type phenotype pictured): 80%

Which results are given for “7. Non-caged: non-caged phosphorothioate DNA targeting Renilla luciferase, 5′ CGTTTCCTTTGTTCTGGA 3′, SEQ ID NO 16”?
Mp/° C. +UV [2]: 39.3 ± 0.8 °C; Mp/° C. −UV [2]: 39.5 ± 0.5 °C; Mp/° C. −UV ([2]; listed as non-caged PS DNA): approximately 39 °C; down-regulation of the Renilla luciferase signal ([3]; NIH 3T3, no UV): 70%

Which “Mp/° C. +UV” value [1] does the source give for “P7: caged primer 5′ CTGATTTCGACCAGGTTCG 3′, SEQ ID NO 9, probably four caged thymidines (DNA, [cagedT] at 2, 5, 7, 17, backbone not given here; PCR primer)” here?
Its value is 64.2 ± 0.3 °C.

And the “Mp/° C. −UV” value [1]?
Its value is “No melting temperatures could be measured”.

Which PCR product ([4]; deactivation (hairpin primer) experiment, no light irradiation, 25 cycles) does the source give for “P8: non-caged hairpin primer 5′ GGTCAGTAAATTGTTTTTCAATTTACTGACCG 3′, SEQ ID NO 12 (hairpin primer, further chemistry not given here) [reference compound]” here?
Its PCR product is “very little PCR product”.

Which “stability of the caging group to PCR conditions” value [5] does the source give for `Cc1cn(C2CC(O)C(CO)O2)c(=O)n(COC(C)c2cc3c(cc2[N+](=O)[O-])OCO3)c1=O` (stereo not drawn) [monomeric caged thymidine, Caged thymidine] here?
Its value is “unaffected by the elevated temperatures”.

With “P6: primer with a cluster of three caged thymidines, SEQ ID NO 8 (DNA CTGATTTCGACCAGGTTCG; DNA, [cageT] at 5, 6, 7, backbone not given here)” as the compound, how does the “Mp/° C. +UV” value [1] read?
Its value is 64.5 ± 0.5 °C.

And the “Mp/° C. −UV” value [1]?
The value was 50.0 °C and 50.0 ± 1.0 °C.

Which “Mp/° C. +UV” value [1] does the source give for “P2: primer 5′ CTGATTTCGACCAGGTTCG 3′ with a single caged thymidine close to the 5′ terminus, SEQ ID NO 4 (DNA, [cageT] at 2, backbone not given here)” here?
The value was 64.1 ± 0.2 °C.

And the “Mp/° C. −UV” value [1]?
Its value is 62.1 °C and 62.1 ± 0.7 °C.

What about the melting temperature depression [1] of the same compound?
The melting temperature depression was 3.2 °C.

Which results are given for “3-Caged: phosphorothioate DNA 5′ CGTTT*CCTTT*GTTCT*GGA 3′, T* NPOM-caged thymidine, SEQ ID NO 17 (DNA dC*dG*dT*dT*d[NPOM-T]*dC*dC*dT*dT*d[NPOM-T]*dG*dT*dT*dC*d[NPOM-T]*dG*dG*dA)”?
Mp/° C. +UV [2]: 39.2 ± 0.6 °C; antisense activity / effect on the luciferase signal [3]: completely inhibited the antisense activity

For “P5: primer with three caging groups distributed throughout the DNA oligomer, SEQ ID NO 7 (DNA CTGATTTCGACCAGGTTCG; DNA, [cageT] at 2, 7, 17, backbone not given here)”, which DNA amplification ([4]; UV irradiation at cycle 15) is on record?
The DNA amplification was “increases exponentially”.

What about the PCR product ([4]; activation experiment, irradiated 8 minutes at 365 nm before cycling, 40 cycles) of the same compound?
Its PCR product is “comparable amounts of PCR product as found in the reaction with P1”.

And the PCR product [4, 6]?
The PCR product was “only trace amounts”.

What about the “Mp/° C. +UV” value [1] of the same compound?
The value was 64.2 ± 0.2 °C.

What about the “Mp/° C. −UV” value [1] of the same compound?
The value was “No melting temperatures could be measured”.

With “P4: P3 with an additional caged thymidine close to the 5′ terminus, SEQ ID NO 6 (DNA CTGATTTCGACCAGGTTCG; DNA, [cageT] at 2, 7, backbone not given here)” as the compound, how does the “Mp/° C. +UV” value [1] read?
Its value is 63.8 ± 0.3 °C.

What about the “Mp/° C. −UV” value [1] of the same compound?
Its value is 55.5 °C and 55.5 ± 0.5 °C.

For “P1: non-caged 19 nucleotide PCR primer 5′ CTGATTTCGACCAGGTTCG 3′, SEQ ID NO 3 (DNA, backbone not given here) [reference compound]”, which PCR product [4, 6] is on record?
The PCR product was “approximately 140 ng”.

And the “Mp/° C. +UV” value [1]?
Its value is 65.0 ± 0.8 °C.

And the “Mp/° C. −UV” value [1]?
Its value is 65.3 °C and 65.3 ± 0.3 °C.
